Experimental data taken from US20080125432A1 (Devgen NV, priority 2004, published 2008).

Each compound was assayed against T1, hERG potassium channel (Homo sapiens, UniProt Q12809) (assay: Whole cell patch clamp, HEK 293 T-REx HERG cells). Conditions: at 1 μM.
T1 construct: host or cells: HEK 293 T-REx
T1 sequence (Q12809 whole entry): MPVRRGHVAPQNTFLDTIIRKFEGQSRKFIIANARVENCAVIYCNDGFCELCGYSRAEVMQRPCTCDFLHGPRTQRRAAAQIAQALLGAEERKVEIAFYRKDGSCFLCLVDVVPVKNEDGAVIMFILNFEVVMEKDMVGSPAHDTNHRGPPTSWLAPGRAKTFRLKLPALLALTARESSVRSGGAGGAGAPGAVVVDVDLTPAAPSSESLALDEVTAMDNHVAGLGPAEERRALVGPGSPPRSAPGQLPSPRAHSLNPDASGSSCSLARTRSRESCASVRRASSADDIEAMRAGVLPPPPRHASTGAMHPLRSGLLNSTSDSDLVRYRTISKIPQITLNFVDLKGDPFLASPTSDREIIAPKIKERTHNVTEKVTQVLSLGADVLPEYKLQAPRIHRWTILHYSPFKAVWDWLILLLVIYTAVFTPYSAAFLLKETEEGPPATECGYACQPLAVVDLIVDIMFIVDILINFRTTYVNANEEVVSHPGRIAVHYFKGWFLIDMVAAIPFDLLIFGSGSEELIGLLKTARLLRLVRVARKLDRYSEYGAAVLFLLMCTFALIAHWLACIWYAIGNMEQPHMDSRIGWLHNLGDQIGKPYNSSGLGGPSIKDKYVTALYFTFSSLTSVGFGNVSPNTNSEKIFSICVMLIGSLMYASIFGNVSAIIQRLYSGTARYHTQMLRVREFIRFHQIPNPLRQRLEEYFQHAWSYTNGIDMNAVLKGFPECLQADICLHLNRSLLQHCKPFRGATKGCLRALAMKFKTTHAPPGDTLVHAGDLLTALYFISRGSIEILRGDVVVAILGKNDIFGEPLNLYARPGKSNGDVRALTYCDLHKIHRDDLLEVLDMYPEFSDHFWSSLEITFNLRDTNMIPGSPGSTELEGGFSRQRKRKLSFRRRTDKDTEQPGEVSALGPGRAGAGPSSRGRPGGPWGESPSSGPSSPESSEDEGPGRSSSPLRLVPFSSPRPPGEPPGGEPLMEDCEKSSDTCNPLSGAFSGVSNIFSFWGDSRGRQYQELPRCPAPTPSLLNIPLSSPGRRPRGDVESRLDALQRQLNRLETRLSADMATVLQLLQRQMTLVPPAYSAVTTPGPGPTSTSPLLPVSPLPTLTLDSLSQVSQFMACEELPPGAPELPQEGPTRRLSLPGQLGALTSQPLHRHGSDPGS
Assay type: cell-based
Source text: For this experiment HEK 293 T-REx HERG cells (#23) were used. This cell line made by IonGate is characterized by the inducible expression of the hERG gene. The T-REx™ System (Invitrogen, Karlsruhe, Germany) is a tetracycline-regulated mammalian expression system that uses regulatory elements from the E. coli Tn10-encoded tetracycline (Tet) resistance operon. In the absence of Tet the expression is repressed. Tetracycline regulation in the T-REx™ System is based on the binding of tetracycline to the Tet repressor and derepression of the promoter controlling expression of the hERG gene. Addition of Tet to the cell culture media results in expression of the hERG potassium channel.
To construct the HEK 293 T-REx HERG cell line, the hERG gene was ligated into the inducible expression vector pcDNA4/TO (→pc4TO-HERG) and transfected into HEK 293 T-REx cells (this cell line stably expresses the Tet repressor and was purchased at Invitrogen). Stable cell clones were isolated after selection with Blasticidin (5 μg/ml) and Zeocin™ (300 μg/ml). The clones were electrophysiological characterized after induction with 1 μg/ml Tet.
Experiments were performed using the patch clamp set-up. Technical equipment needed for manipulation of the cells was placed on a vibration-isolated table and shielded with a Faraday cage to minimize electrical noise. The amplifier and control system were placed in a rack outside the Faraday cage. The system consisted of an EPC9 or EPC10 patch clamp amplifier (HEKA, Lambrecht, Germany), and the perfusion system DADVC8 (ALA Scientific, New York, USA) controlled by the Pulse software package (HEKA, Lambrecht, Germany) installed on a personal computer.
The cells used for this experiment were kept in continuous culture under standard conditions (37° C., air supplemented with 5% CO2). The HEK 293 T-REx HERG cells were kept in minimal essential medium (MEM) supplemented with 100 U/ml Penicillin, 100 μg/ml Streptomycin, 10% fetal calf serum (FCS), 1% non-essential amino acids (NEAA), 2.5 μg/ml amphotericin, 300 μg/ml Zeocin™ and 5 μg/ml Blasticidin. Cells were passed every 3-4 days after detachment using a Trypsin solution. The quality of the cultured cells was guaranteed by vitality and contamination tests. The culture of the cells was performed as described in protocol D described above.
At least 18 hours prior to electrophysiological experiments the cells were detached by application of iced PBS (phosphate buffered saline) or Trypsin and replated on cover slips. 1 μg/ml Tet was added to the cells to induce hERG expression.
Activity of the cardiac hERG channel was investigated using the patch clamp technique in its whole cell mode. This means that the current needed for clamping the whole cell expressing the K^+-channel protein to a specific potential was measured. The pipettes used for patch clamping were made of borosilicate glass. Measurements were performed at room temperature (20-25° C.). In each experiment (i.e. each cell) only one concentration of the compound was investigated no cumulative dosages were performed. Each cell acted as its own control. […]
After the whole cell configuration was established a series of pulses was applied to check for hERG expression and to optimize amplifier settings. However, only the following measurements were used for data analysis: 15 test pulses (FIG. 4a and Table 6a) were applied at 0.1 Hz (series 1) under constant superfusion with bath solution. The protocol was initiated by a leak test at −40 mV (50 ms). […] The maximum hERG tail current amplitude was measured at −40 mV (tail current test, 1.5 sec.). Only cells generating tail current amplitudes between 300 pA and 10 nA were used for the experimental procedure.
After successful characterization of the current another 10 test pulses were applied at 0.1 Hz while the cell was superfused with bath solution (series 2). […]
Compound `Cc1nc(Nc2ccc3occc3c2)sc1C(=O)N[C@H]1CCC[C@@H]1OCc1ccccc1` [Compound 126, 2-(benzofuran-5-ylamino)-4-methyl-thiazole-5-carboxylic acid ((1S,2S)-2-benzyloxycyclopent-1-yl) amide] has a hERG of 74 at1 μM.

Same assay, conditions: estimated by Hill fit with hill=1, ymax=100; tested at 10 μM, n=2; read-out: IC50 (μM) hERG
With `COc1ccccc1Nc1nc(C)c(C(=O)N[C@H]2CCC[C@@H]2OCc2ccccc2)s1` [Compound 68, 2-(2-methoxy-phenylamino)-4-methyl-thiazole-5-carboxylic acid (1S,2S)-2-(benzyloxycyclopent-1-yl) amide] the IC50 was 7.95 µM.
Compound `Cc1nc(Nc2ccc(Cl)cc2)sc1C(=O)N[C@@H](C)c1ccc2ccccc2c1` [Compound 54, 2-(4-chloro-phenylamino)-4-methyl-thiazole-5-carboxylic acid (S)-1-(2-naphtalen-2-yl-ethyl)-amide] has an IC50 of 15.8 µM.
In the case of `Cc1nc(Nc2ccc(Br)cc2)sc1C(=O)NCc1ccc(F)c(C(F)(F)F)c1` [Compound 63, 2-(4-bromo-phenylamino)-4-methyl-thiazole-5-carboxylic acid 4-fluoro-3-trifluoromethyl-benzylamide], the IC50 is reported as 5.29 µM.
In the case of `COc1ccccc1Nc1nc(C)c(C(=O)N[C@@H](C)c2ccc3ccccc3c2)s1` [Compound 55, 2-(2-methoxy-phenylamino)-4-methyl-thiazole-5-carboxylic acid (S)-1-(2-naphtalen-2-yl-ethyl)-amide], the IC50 is reported as 10.2 µM.
In the case of `Cc1nc(Nc2ccc(Cl)cc2)sc1C(=O)N[C@@H]1CCC[C@H]1OCc1ccccc1` [Compound 30, 2-(4-chloro-phenylamino)-4-methyl-thiazole-5-carboxylic acid (1R,2R)-2-(benzyloxycyclopent-1-yl) amide], the IC50 is reported as 11 µM.
Compound `COc1ccc(CNC(=O)c2sc(Nc3ccc(Br)cc3)nc2C)cc1` [Compound 60, 2-(4-bromo-phenylamino)-4-methyl-thiazole-5-carboxylic acid 4-methoxy-benzylamide] has an IC50 of 3 µM.
Compound `COc1cc(CNC(=O)c2sc(Nc3ccc(Br)cc3)nc2C)cc(OC)c1` [Compound 65, 2-(4-bromo-phenylamino)-4-methyl-thiazole-5-carboxylic acid 3,5-dimethoxy-benzylamide] has an IC50 of 1.63 µM.
In the case of `Cc1nc(Nc2ccc(Br)cc2)sc1C(=O)N[C@H](C)c1ccc2ccccc2c1` [Compound 19, 2-(4-bromo-phenylamino)-4-methyl-thiazole-5-carboxylic acid (R)-1-(naphthalen-2-yl)ethyl amide], the IC50 is reported as 90 µM.
For `Cc1nc(Nc2ccc(Br)cc2)sc1C(=O)NCc1cccc2ccccc12` [Compound 56, 2-(4-bromo-phenylamino)-4-methyl-thiazole-5-carboxylic acid (naphtalen-1-yl-methyl)-amide], the IC50 was 7.04 µM.
With `COc1cccc([C@@H](C)NC(=O)c2sc(Nc3cc(Cl)ccc3OC)nc2C)c1` [Compound 34] the IC50 was 8.73 µM.
With `Cc1nc(Nc2ccc(F)cc2)sc1C(=O)N[C@H](C)c1ccc2ccccc2c1` [Compound 16, 2-(4-fluoro-phenylamino)-4-methyl-thiazole-5-carboxylic acid (R)-1-(naphthalen-2-yl)ethyl amide] the IC50 was 28 µM.
“2-(4-bromo-phenylamino)-4-methyl-thiazole-5-carboxylic acid 1,2,3,4-tetrahydroisoquinolinamide [Compound 66]” gave an IC50 of 9.88 µM.
`Cc1nc(Nc2ccc(Cl)cc2)sc1C(=O)N[C@H](C)c1ccc2ccccc2c1` [Compound 52, 2-(4-chloro-phenylamino)-4-methyl-thiazole-5-carboxylic acid (R)-1-(2-naphtalen-2-yl-ethyl)-amide] showed an IC50 of 24.2 µM.
For `COc1ccccc1Nc1nc(C)c(C(=O)N[C@@H]2CCC[C@H]2OCc2ccccc2)s1` [Compound 31, 2-(2-methoxy-phenylamino)-4-methyl-thiazole-5-carboxylic acid (1R,2R)-2-(benzyloxycyclopent-1-yl) amide], the IC50 was 25.3 µM.
With `COc1ccc(OC)c(Nc2nc(C)c(C(=O)N[C@@H]3CCC[C@H]3OCc3ccccc3)s2)c1` [Compound 33, 2-(2,5-dimethoxyphenylamino)-4-methylthiazole-5-carboxylic acid (1R,2R)-2-(benzyloxycyclopent-1-yl) amide] the IC50 was 33.5 µM.
`Cc1nc(Nc2ccc(Br)cc2)sc1C(=O)N[C@@H](C)c1ccc2ccccc2c1` [Compound 18, 2-(4-bromo-phenylamino)-4-methyl-thiazole-5-carboxylic acid (S)-1-(naphthalen-2-yl)ethyl amide] showed an IC50 of 26.5 µM.

Same assay, conditions: patch clamp; read-out: hERG IC50
Compound `Cc1nc(Nc2ccc(Cl)cc2)sc1C(=O)N[C@@H](C)c1ccc2ccccc2c1` [Compound 54, 2-(4-chloro-phenylamino)-4-methyl-thiazole-5-carboxylic acid (S)-1-(2-naphtalen-2-yl-ethyl)-amide] has an IC50 of 15.8 µM.
Work on `Cc1nc(Nc2ccc(Cl)cc2)sc1C(=O)N[C@@H]1CCC[C@H]1OCc1ccccc1` [Compound 30, 2-(4-chloro-phenylamino)-4-methyl-thiazole-5-carboxylic acid (1R,2R)-2-(benzyloxycyclopent-1-yl) amide] yielded an IC50 of 11 µM.
With `Cc1nc(Nc2ccc(Br)cc2)sc1C(=O)NCc1cccc2ccccc12` [Compound 56, 2-(4-bromo-phenylamino)-4-methyl-thiazole-5-carboxylic acid (naphtalen-1-yl-methyl)-amide] the IC50 was 7.04 µM.
In the case of “2-(4-bromo-phenylamino)-4-methyl-thiazole-5-carboxylic acid 1,2,3,4-tetrahydroisoquinolinamide [Compound 66]”, the IC50 is reported as 9.88 µM.
With `Cc1nc(Nc2ccc(Cl)cc2)sc1C(=O)N[C@H](C)c1ccc2ccccc2c1` [Compound 52, 2-(4-chloro-phenylamino)-4-methyl-thiazole-5-carboxylic acid (R)-1-(2-naphtalen-2-yl-ethyl)-amide] the IC50 was 24.2 µM.

Same assay, conditions: percent value, test concentration not given
With `Cc1nc(Nc2ccc3c(c2)OCCO3)sc1C(=O)N[C@H]1CCC[C@@H]1OCc1ccccc1` [Compound 95] the hERG was 76%.
`COc1ccccc1Nc1nc(C)c(C(=O)NCc2ccc(N(C)C)cc2)s1` [Compound 105, 2-(2-methoxy-phenylamino)-4-methyl-thiazole-5-carboxylic acid 4-dimethylamino-benzylamide] showed a hERG of 67%.
`COc1ccccc1Nc1nc(C)c(C(=O)NCc2ccc3c(c2)CCO3)s1` [Compound 104, 2-(2-methoxy-phenylamino)-4-methyl-thiazole-5-carboxylic acid (2,3-dihydro-benzofuran-5-ylmethyl)-amide] was tested, and the hERG was 43%.
In the case of `Cc1nc(Nc2cccc3cccnc23)sc1C(=O)N[C@H]1CCC[C@@H]1OCc1ccccc1` [Compound 94, 4-methyl-2-(quinolin-8-ylamino)-thiazole-5-carboxylic acid ((1S,2S)-2-benzyloxycyclopent-1-yl) amide], the hERG is reported as 69%.
For `COc1ccccc1Nc1nccc(C(=O)N[C@H]2CCC[C@@H]2OCc2ccccc2)n1` [Compound 76, 2-(2-methoxy-phenylamino)-pyrimidine-4-carboxylic acid ((1S,2S)-2-benzyloxycyclopent-1-yl) amide], the hERG was 34%.
Work on `Cc1nc(Sc2ccccc2)sc1C(=O)N[C@H]1CCC[C@@H]1OCc1ccccc1` [Compound 81, 4-methyl-2-phenylsulfanyl-thiazole-5-carboxylic acid ((1S,2S)-2-benzyloxycyclopent-1-yl) amide] yielded a hERG of 88%.
`COc1ccccc1Nc1nc(C)c(C(=O)NCc2ccccc2SC)s1` [Compound 97] showed a hERG of 55%.
Work on `COc1ccccc1Nc1nc(C)c(C(=O)NCc2ccc(C(C)(C)C)cc2)s1` [Compound 106, 2-(2-methoxy-phenylamino)-4-methyl-thiazole-5-carboxylic acid 4-tert-butyl-benzylamide] yielded a hERG of 31%.
With `Cc1nc(Nc2cccc3ccccc23)sc1C(=O)N[C@H]1CCC[C@@H]1OCc1ccccc1` [Compound 93] the hERG was 59%.
With `Cc1nc(NC(=O)c2ccc(C(C)(C)C)cc2)sc1C(=O)N[C@H]1CCC[C@@H]1OCc1ccccc1` [Compound 180, 2-(4-tert-butyl-benzoylamino)-4-methyl-thiazole-5-carboxylic acid ((1S,2S)-2-benzyloxycyclopent-1-yl) amide] the hERG was 64%.
In the case of `COc1ccccc1Nc1ccc(C(=O)N[C@H]2CCC[C@@H]2OCc2ccccc2)s1` [Compound 75, 2-(2-methoxy-phenylamino)-thiophene-5-carboxylic acid ((1S,2S)-2-benzyloxycyclopent-1-yl) amide], the hERG is reported as 76%.
For `COc1ccccc1Nc1nc(C)c(C(=O)NCc2ccc(Br)cc2)s1` [Compound 108, 2-(2-methoxy-phenylamino)-4-methyl-thiazole-5-carboxylic acid 4-bromo-benzylamide], the hERG was 19%.
For `COc1ccccc1Nc1nc(C)c(C(=O)NCc2c(C)cccc2Cl)s1` [Compound 98, 2-(2-methoxy-phenylamino)-4-methyl-thiazole-5-carboxylic acid 2-chloro-6-methyl-benzylamide], the hERG was 38%.
